Patent US8563714B2, “Bridged spiro [2.4] heptane derivatives as ALX receptor and/or FPRL2 agonists” (Actelion Pharmaceuticals Ltd., priority 2009, dated 2013)

Legend:
[1] = target: T1, human ALX receptor (Homo sapiens, UniProt P25090); assay: Intracellular calcium measurements (FLIPR), agonistic activity in HEK293-hALXR-Gα16 cells; format: cell-based; conditions: Fluo-4 calcium FLIPR, normalized to WKYMVm 10 nM
T1 construct: expressed in transfected cells; host or cells: HEK293 (HEK293-hALXR-Gα16)
T1 sequence (P25090 1-351): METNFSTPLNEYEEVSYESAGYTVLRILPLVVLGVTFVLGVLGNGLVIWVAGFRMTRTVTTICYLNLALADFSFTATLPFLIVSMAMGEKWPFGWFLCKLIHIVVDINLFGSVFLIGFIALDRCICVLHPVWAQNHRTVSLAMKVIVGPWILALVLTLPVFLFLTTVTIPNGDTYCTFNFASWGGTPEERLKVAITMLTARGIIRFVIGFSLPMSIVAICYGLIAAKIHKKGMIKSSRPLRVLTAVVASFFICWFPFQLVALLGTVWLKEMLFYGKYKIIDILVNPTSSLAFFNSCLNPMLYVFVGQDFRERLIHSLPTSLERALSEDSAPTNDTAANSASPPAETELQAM
Protocol: (§1) The ALX receptor and FPRL2 agonistic activities of the compounds of formula (I) are determined in accordance with the following experimental method.
(§2) Intracellular Calcium Measurements:
Cells expressing recombinant human ALX receptor and the G-protein Gα16 (HEK293-hALXR-Gα16) were grown to 80% confluency in Growing Medium (GM). Cells were detached from culture dishes with a cell dissociation buffer (Invitrogen, 13151-014), and collected by centrifugation at 1,000 rpm at rt for 5 min in Assay Buffer (AB) (equal parts of Hank's BSS (Gibco, 14065-049) and DMEM without Phenol Red (Gibco, 11880-028)). After 60 min incubation at 37° C. under 5% CO2 in AB supplemented with 1 μM Fluo-4 (AM) (Invitrogen, F14202), and 20 mM HEPES (Gibco, 15630-056), the cells were washed and resuspended in AB. They were then seeded onto 384-well FLIPR assay plates (Greiner, 781091) at 50′000 cells in 70 μl per well and sedimented by centrifugation at 1,000 rpm for 1 min. Stock solutions of test compounds were made up at a concentration of 10 mM in DMSO, and serially diluted in AB to concentrations required for activation dose response curves. WKYMVm (Phoenix Peptides) was used as a reference agonist. FLIPR384 or FLIPR Tetra instruments (Molecular Devices) were operated according to the manufacturer's standard instructions, adding 4 μl of test compound dissolved at 10 mM in DMSO and diluted prior to the experiment in assay buffer to obtain the desired final concentration. Changes in fluorescence were monitored before and after the addition of test compounds at lex=488 nm and lem=540 nm. Emission peak values above base level after compounds addition were exported after base line subtraction. Values were normalized to high-level control (WKYMVm compound, 10 nM final concentration) after subtraction of the base line value (AB addition).

[2] = target: T2, human FPRL2 (Homo sapiens, UniProt P25089); assay: Intracellular calcium measurements (FLIPR), agonistic activity in HEK293-hFPRL2-Gα16 cells; format: cell-based; conditions: Fluo-4 calcium FLIPR, normalized to GLY14-Humanin 100 nM
T2 construct: expressed in transfected cells; host or cells: HEK293 (HEK293-hFPRL2-Gα16)
T2 sequence (P25089 1-353): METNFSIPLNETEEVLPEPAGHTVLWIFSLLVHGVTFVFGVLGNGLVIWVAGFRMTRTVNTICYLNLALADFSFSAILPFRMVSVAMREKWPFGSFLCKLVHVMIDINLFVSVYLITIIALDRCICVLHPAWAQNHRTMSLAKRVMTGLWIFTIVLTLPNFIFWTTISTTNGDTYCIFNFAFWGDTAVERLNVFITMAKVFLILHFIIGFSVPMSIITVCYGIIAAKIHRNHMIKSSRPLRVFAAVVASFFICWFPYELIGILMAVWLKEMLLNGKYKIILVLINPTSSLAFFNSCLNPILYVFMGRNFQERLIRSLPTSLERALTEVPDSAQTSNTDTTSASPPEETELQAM
Protocol: as §1, §2
Cells expressing recombinant human FPRL2 and the G-protein Gα16 (HEK293-hFPRL2-Gα16) were grown to 80% confluency in Growing Medium (GM). […] Stock solutions of test compounds were made up at a concentration of 10 mM in DMSO, and serially diluted in AB to concentrations required for activation dose response curves. Gly14-Humanin (Humanin peptide with replacement of Serine by Glycine at position 14, Phoenix Peptides) was used as a reference agonist. FLIPR384 or FLIPR Tetra instruments (Molecular Devices) were operated according to the manufacturer's standard instructions, adding 4 μl of test compound dissolved at 10 mM in DMSO and diluted prior to the experiment in assay buffer to obtain the desired final concentration. Changes in fluorescence were monitored before and after the addition of test compounds at lex=488 nm and lem=540 nm. Emission peak values above base level after compounds addition were exported after base line subtraction. Values were normalized to high-level control (GLY14-Humanin compound, 100 nM final concentration) after subtraction of the base line value (AB addition).

| Compound | EC50 [1] [nM] | EC50 [2] [nM] |
| --- | --- | --- |
| CCSCCNC(=O)[C@H]1[C@H](C(=O)Nc2ccc(Br)cc2)[C@@H]2C=C[C@H]1C21CC1 (racemic) [Example 24, (5R*)—N^5-(4-Bromophenyl)-(6R*)—N^6-(2-ethylsulfanyl-ethyl)-(4S*,7R*)-[4,7-ethenylene-spiro[2.4]heptane]-5,6-dicarboxamide] | 3.7 | 4120 |
| O=C(NCCN1CCNC1=O)[C@H]1[C@H](C(=O)Nc2ccc(Br)cc2)[C@@H]2C=C[C@H]1C21CC1 (racemic) [Example 29, (5R*)—N^5-(4-Bromophenyl)-(6R*)—N^6-(2-imidazolidin-2-on-1-yl-ethyl)-(4S*,7R*)-[4,7-ethenylene-spiro[2.4]heptane]-5,6-dicarboxamide] | 4.8 | 5580 |
| O=C(NCCCN1CCCC1)[C@H]1[C@H](C(=O)Nc2ccc(Br)cc2)[C@@H]2C=C[C@H]1C21CC1 (racemic) [Example 30, (5R*)—N^5-(4-Bromophenyl)-(6R*)—N^6-(3-pyrrolidin-1-yl-propyl)-(4S*,7R*)-[4,7-ethenylene-spiro[2.4]heptane]-5,6-dicarboxamide] | 4.9 | 405 |
| O=C(NCCCc1nc2ccccc2[nH]1)[C@H]1[C@H](C(=O)Nc2ccc(Br)cc2)[C@@H]2C=C[C@H]1C21CC1 (racemic) [Example 32, (5R*)—N^5-(4-Bromophenyl)-(6R*)—N^6-(3-(1H-benzoimidazol-2-yl)-propyl)-(4S*,7R*)-[4,7-ethenylene-spiro[2.4]heptane]-5,6-dicarboxamide] | 5.4 | 3280 |
| O=C(NCCO)[C@H]1[C@H](C(=O)Nc2ccc(Br)cc2)[C@@H]2C=C[C@H]1C21CC1 (racemic) [Example 34, (5R*)—N^5-(4-Bromophenyl)-(6R*)—N^6-(2-hydroxy-ethyl)-(4S*,7R*)-[4,7-ethenylene-spiro[2.4]heptane]-5,6-dicarboxamide] | 6.1 | 16100 |
| COCCN(CCOC)C(=O)C1C(C(=O)Nc2ccc(Br)cc2)C2C=CC1C21CC1 (racemic) [Example 35, (5R*)—N^5-(4-Bromophenyl)-(6R*)—N^6,N^6-bis-(2-methoxy-ethyl)-(4S*,7R*)-[4,7-ethenylene-spiro[2.4]heptane]-5,6-dicarboxamide] | 6.1 | 1870 |
| N#CCNC(=O)[C@H]1[C@H](C(=O)Nc2ccc(Br)cc2)[C@@H]2C=C[C@H]1C21CC1 (racemic) [Example 36, (5R*)—N^5-(4-Bromophenyl)-(6R*)—N^6-(cyano-methyl)-(4S*,7R*)-[4,7-ethenylene-spiro[2.4]heptane]-5,6-dicarboxamide] | 6.7 | 11500 |
| O=C(NCCCn1cccn1)[C@H]1[C@H](C(=O)Nc2ccc(Br)cc2)[C@@H]2C=C[C@H]1C21CC1 (racemic) [Example 37, (5R*)—N^5-(4-Bromophenyl)-(6R*)—N^6-(3-1H-pyrazol-1-yl-propyl)-(4S*,7R*)-[4,7-ethenylene-spiro[2.4]heptane]-5,6-dicarboxamide] | 7.1 | 1710 |
| NCc1ccc(CNC(=O)[C@H]2[C@H](C(=O)Nc3ccc(Br)cc3)[C@@H]3C=C[C@H]2C32CC2)cc1 (racemic) [Example 38, (5R*)—N^5-(4-Bromophenyl)-(6R*)—N^6-[(4-aminomethyl-phenyl)-methyl]-(4S*,7R*)-[4,7-ethenylene-spiro[2.4]heptane]-5,6-dicarboxamide] | 7.5 | 1550 |
| CCN(CC)CCN(CC)C(=O)[C@H]1[C@H](C(=O)Nc2ccc(Br)cc2)[C@@H]2C=C[C@H]1C21CC1 (racemic) [Example 39, (5R*)—N^5-(4-Bromophenyl)-(6R*)—N^6-ethyl-N^6-(2-diethylamino-ethyl)-(4S*,7R*)-[4,7-ethenylene-spiro[2.4]heptane]-5,6-dicarboxamide] | 7.6 | 1540 |
| O=C(NCCCn1ccnc1)[C@H]1[C@H](C(=O)Nc2ccc(Br)cc2)[C@@H]2C=C[C@H]1C21CC1 (racemic) [Example 40, (5R*)—N^5-(4-Bromophenyl)-(6R*)—N^6-(3-1H-imidazol-1-yl-propyl)-(4S*,7R*)-[4,7-ethenylene-spiro[2.4]heptane]-5,6-dicarboxamide] | 9 | 848 |
| O=C(NCCCCO)[C@H]1[C@H](C(=O)Nc2ccc(Br)cc2)[C@@H]2C=C[C@H]1C21CC1 (racemic) [Example 42, (5R*)—N^5-(4-Bromophenyl)-(6R*)—N^6-(4-hydroxy-butyl)-(4S*,7R*)-[4,7-ethenylene-spiro[2.4]heptane]-5,6-dicarboxamide] | 9.6 | 7840 |
| CN1CCN(CCCNC(=O)[C@H]2[C@H](C(=O)Nc3ccc(Br)cc3)[C@@H]3C=C[C@H]2C32CC2)CC1 (racemic) [Example 43, (5R*)—N^5-(4-Bromophenyl)-(6R*)—N^6-(3-(4-methyl-piperazin-1-yl)-propyl)-(4S*,7R*)-[4,7-ethenylene-spiro[2.4]heptane]-5,6-dicarboxamide] | 9.5 | 925 |
| NCCNC(=O)[C@H]1[C@H](C(=O)Nc2ccc(Br)cc2)[C@@H]2C=C[C@H]1C21CC1 (racemic) [Example 44, (5R*)—N^5-(4-Bromophenyl)-(6R*)—N^6-(2-amino-ethyl)-(4S*,7R*)-[4,7-ethenylene-spiro[2.4]heptane]-5,6-dicarboxamide] | 10 | 4910 |
| CN(C)CCN(C)C(=O)[C@H]1[C@H](C(=O)Nc2ccc(Br)cc2)[C@@H]2C=C[C@H]1C21CC1 (racemic) [Example 45, (5R*)—N^5-(4-Bromophenyl)-(6R*)—N^6-methyl-N^6-(2-dimethylamino-ethyl)-(4S*,7R*)-[4,7-ethenylene-spiro[2.4]heptane]-5,6-dicarboxamide] | 11 | 4160 |
| CC(C)(C)OC(=O)NCCCCNC(=O)[C@H]1[C@H](C(=O)Nc2ccc(Br)cc2)[C@@H]2C=C[C@H]1C21CC1 (racemic) [Example 46, (5R*)—N^5-(4-Bromophenyl)-(6R*)—N^6-(4-tert-butoxycarbonyl-amino-butyl)-(4S*,7R*)-[4,7-ethenylene-spiro[2.4]heptane]-5,6-dicarboxamide] | 11 | 1600 |
| CN(CCNC(=O)[C@H]1[C@H](C(=O)Nc2ccc(Br)cc2)[C@@H]2C=C[C@H]1C21CC1)C(=O)OC(C)(C)C (racemic) [Example 47, (5R*)—N^5-(4-Bromophenyl)-(6R*)—N^6-(2-(methyl-tert-butoxycarbonyl-amino)-ethyl)-(4S*,7R*)-[4,7-ethenylene-spiro[2.4]heptane]-5,6-dicarboxamide] | 12 | 1170 |
